According to patent publication US10597719B2, “Detection kit and simple method for detecting target nucleic acids” (National University Corporation Gunma University, priority 2015, dated 2020):
Where two headings read alike, the source gives them in different places.

Tests used:
[1] = system: target G4; test: Affinity of dyes to the target G4, overall comparison from Table 1; assay type: binding, human; conditions: according to Table 1
Procedure: (§1) Each of the eight kinds of oligonucleotides (22AG, 26Tel, 27Myc, 22Kit, 20Src, 18Ras, ssDNA, and dsDNA) was dissolved in the buffer TRS50K, PBS150K, PBS140KM, or PBS153NM at a concentration of 21 μM, and denatured by heating at 95° C. (or at 40° C. for 18Ras) for 0.5 minute using a thermal cycler, followed by cooling the resulting solution to 25° C. at a rate of 0.5° C./minute to allow refolding. Each solution was diluted to an appropriate oligonucleotide concentration, and its aliquots (50 μL each) were incubated at 25° C. for 30 minutes, followed by mixing each aliquot with 20 μL of a solution of a dye (ThT, ThT-DB, or ThT-HE; 10.5 μM) in the buffer TRS50K, PBS150K, PBS140KM, or PBS153NM. These mixtures were incubated at 25° C. for 30 minutes. An emission spectrum of each dye was obtained by excitation at 415 nm and monitoring of fluorescence between 450 nm and 600 nm.
(§2) FIGS. 3-4 to 3-6 show relative fluorescence intensities as the peaks of the emitted light at 485 nm (ThT and ThT-HE) or 500 nm (ThT-DB) with respect to the intensity of the dye that interacted with dsDNA, which was taken as 1. The X-axis represents the oligonucleotide concentration.

[2] = molecular target: 18Ras; test: Fluorescence titration, binding of dye to 18Ras; set-up: species or system human
Procedure: (§3) The following six kinds of G4-forming human-derived oligonucleotides were used:
the 5′-untranslated region of a human NRAS proto-oncogene transcript (18Ras).
as §1, §2

[3] = molecular target: dsDNA; test: Fluorescence titration, binding of dye to dsDNA standard; conditions: for Kd: n.d. cells; for emission of fluorescence in the presence of dsDNA: dye 3 μM in PBS153NM, dsDNA 0-15 μM (FIG. 2)
Procedure: (§4) Besides these sequences, the following two kinds of oligonucleotides were used as standards:
(§5) The ssDNA was used as a single-stranded DNA, and the cDNA was used as a double-stranded DNA (dsDNA) by mixing with the ssDNA at a ratio of 1:1.
as §1, §2

[4] = molecular target: ssDNA; test: Fluorescence titration, binding of dye to ssDNA standard; conditions: n.d. cells
Procedure: as §4, §5, §1, §2

[5] = molecular target: 22AG; test: Fluorescence titration, binding of dye to 22AG; set-up: species or system human
Procedure: as §3
(§6) telomere regions (22AG and 26Tel);
as §1, §2

[6] = system: 27Myc; test: Fluorescence titration, binding of dye to 27Myc; set-up: species or system human; conditions: for Kd: read-out: Kd 27Mye
Procedure: as §3
the nuclease-sensitive element region of the c-Myc P1 promoter (27Myc);
as §1, §2

[7] = molecular target: 22Kit; test: Fluorescence titration, binding of dye to 22Kit; set-up: species or system human
Procedure: as §3
the 87-nucleotide upstream region of the transcription initiation site of a proto-oncogene encoding tyrosine kinase (22Kit);
as §1, §2

[8] = molecular target: 26Tel; test: Fluorescence titration, binding of dye to 26Tel; set-up: species or system human
Procedure: as §3, §6, §1, §2

[9] = molecular target: 20Src; test: Fluorescence titration, binding of dye to 20Src; set-up: species or system human; conditions: n.d. cells, read-out: Kd 20Sre
Procedure: as §3
a proto-oncogene encoding a nonreceptor tyrosine kinase (20Src); and
as §1, §2

Row | Kd ([2]; buffer PBS150K) [µM] | Kd ([2]; buffer PBS153NM) [µM] | Kd ([3]; buffer PBS150K) [µM] | Kd ([3]; buffer PBS153NM) [µM] | Kd ([4]; buffer PBS150K) [µM] | Kd ([4]; buffer PBS153NM) [µM] | Kd ([5]; buffer PBS150K) [µM] | Kd ([5]; buffer PBS153NM, n.d. cells) [µM] | specificity to guanine quadruplex ([6]; 27Myc versus dsDNA, PBS153NM (FIG. 2)) | Kd ([6]; buffer PBS150K) [µM] | Kd ([6]; buffer PBS153NM) [µM] | Kd ([7]; buffer PBS150K) [µM] | Kd ([7]; buffer PBS153NM) [µM] | Kd ([8]; buffer PBS150K) [µM] | Kd ([8]; buffer PBS153NM, n.d. cells) [µM] | Kd ([9]; buffer PBS150K) [µM] | Kd ([9]; buffer PBS153NM) [µM] | Kd ([8]; buffer PBS153NM) [µM] | SMILES | affinity to the target G4 compared with ThT [1] | emission of fluorescence in the presence of dsDNA [3]
1 | 20.9 ± 2.8 | 28.5 ± 9.7 | > 40 | > 40 | > 40 | > 40 | 17.6 ± 3.6 | > 40 | high specificity to guanine quadruplex | 23.9 ± 1.4 | 13.7 ± 1.4 | 40 ± 9 | 12.3 ± 1.8 | 10.6 ± 2.9 | > 40 | > 40 | > 40 |  | Cc1ccc2c(c1)sc(-c1ccc(N(C)C)cc1)[n+]2CCO [ThT-HE] | generally lower than affinity of ThT | hardly show fluorescence
2 | 10.3 ± 3 | 16 ± 4.2 | > 40 | > 40 | > 40 | > 40 | 7.3 ± 0.3 | > 40 |  | 8.7 ± 1 | 7.2 ± 0.6 | 12.3 ± 1.8 | 7.2 ± 0.9 | 5 ± 0.8 |  | > 40 | > 40 | 25.3 ± 1.5 | Cc1ccc2c(c1)sc(-c1ccc(N(C)C)cc1)[n+]2C.[Cl-] [ThT, thioflavin T, reference compound] |  | considerable level of emission of fluorescence
